Tests used:
[1] = tested on: lysosomal ATP in HeLa cells; assay: Lysosomal selectivity: colocalization with LysoTracker by one-photon and two-photon fluorescence microscopy; format: cell-based, human
Description: The present inventors treated HeLa cells with Compound 4 (R1═R2═H), which is a fluorescent probe, examined a fluorescence emission phenomenon through two-photon fluorescence microscopy, and assessed lysosomal selectivity by treating the cells also with LysoTracker (Life Technologies Corp.), which is a lysosome marker widely used to assess lysosomal selectivity, and then performing one-photon and two-photon fluorescence microscopy. The scale bar in FIG. 6 is 25 μm.
Each cell was cultured in Minimum Essential Medium with Earle's Balanced Salts (MEM/EBSS) of Hyclone™ GE Healthcare Life Sciences and a Dulbecco's modified Eagle's medium (DMEM), and the culture was carried out at 37° C. […] The cells prepared as thus were observed through two-photon fluorescence microscopy to obtain fluorescence images, and the two-photon fluorescence microscopic images were obtained at a 780 nm excitation wavelength and through a laser power of 4 mW respectively in the blue channel (440-490 nm), yellow channel (550-600 nm), and red channel (650-700 nm). […]
The experiment was repeated with LysoTracker Deep Red (Life Technologies Corp.). HeLa cells were treated with LysoTracker, and then a fluorescence image thereof was obtained with a one-photon fluorescence microscope (TCS SP5 II, Leica, Germany). […]

[2] = Absorption characteristic of fluorescent probe with and without ATP; format: physicochemical; conditions: 10 μM, pH 5.5 PBS (0.1% acetonitrile)
Description: Specifically, to observe the absorption characteristic of the fluorescent probe, the present inventors measured an absorbance spectrum by filling, with a pH 5.5 PBS solution (with 0.1% acetonitrile) comprising 10 μM Compound 4, a quartz fluorescence cell (114F-QS, Hellma Analytics) with a 1 cm light path, and a graph of the absorbance (y-axis) with respect to the wavelength (x-axis) is shown in FIG. 1A. In addition, another absorbance spectrum was measured by filling a quartz fluorescence cell (114F-QS, Hellma Analytics) with a 1 cm light path with a pH 5.5 PBS solution (with 0.1% acetonitrile) comprising 10 μM Compound 4 and 1 mM ATP, and a graph of the absorbance (y-axis) with respect to the wavelength (x-axis) is shown in FIG. 1B. […] On the other hand, in FIG. 1B in which ATP was detected, a new absorption was observed near 540 nm in addition to 400 nm. The absorbance spectra were obtained using the HP 8453 UV/Vis spectrophotometer.

HeLa cells = assay: MTT assay cytotoxicity / cell viability; format: cell-based
Description: The present inventors examine the cytotoxicity of Compound 4 (R1═R2═H), which is the fluorescent probe according to embodiments of the present invention, by treating HeLa cells (human uterine cancer cells) with the compound, and the results are provided in FIG. 5.
To examine the cytotoxicity of Compound 4, an MTT assay was conducted on the HeLa cells and the cell viability was assessed.
Specifically, the cells (100 μL/well) were prepared in a 96-well plate at the density of about 5×10^3 cells per well. The cells were treated with Compound 4 at the concentration of 10, 30, 50, or 100 μM, cultured for 1 hour, and then washed with a PBS buffer solution. 25 μL of a 5 mg/mL 3-(4,5-[…])-2,5-diphenyltetrazolium bromide (MTT) solution was put in each well. After culturing for 2 hours at 37° C., the medium was removed, formazan crystals were dissolved in dimethyl sulfoxide (DMSO), and the absorbance was measured using a plate reader. According to FIG. 5, Compound 4 was confirmed to have low cytotoxicity up to the concentration of 10 μM within 24 hours (about 8% of the cells died). In addition, even when the concentration of Compound 4 was increased to 100 μM, it was confirmed that cytotoxicity within 8 hours was low (about 20% of the cells died), which indicated the possibility of conducting experiments in the corresponding range.

[3] = tested on: lysosomal ATP in rat brain tissue; assay: Two-photon microscopic imaging of rat brain tissue treated with fluorescent probe; conditions: rat brain tissue slice, 30 μM, 20 minutes, 780 nm two-photon excitation
Description: The present inventors treated a rat brain tissue with Compound 4 (R1═R2═H), which is the fluorescent probe according to embodiments of the present invention and observed the changes in fluorescence through two-photon fluorescence microscopy, and the results are provided in FIG. 8. The scale bar in FIG. 8 is 80 μm.
Specifically, to obtain a two-photon fluorescence microscopic image of a rat tissue treated with Compound 4, an experiment was carried out under a condition of isolated from light (in a dark room) using a […] rat (5 weeks old, male, Samtako Inc.). The brain of the rat was dissected and washed with a PBS buffer solution, and then the individual organs were frozen with dry ice for 5 minutes. The frozen organs were broken with a hammer, and 50 μm-thick tissue slice samples were prepared using a cryostat machine (CM3000, Leica). […] The fluorescence was observed through two-photon fluorescence microscopy. The two-photon fluorescence microscope was configured with a 20× objective lens (HCX APO L 20×/1.00 W, Leica, Germany), and the observation was carried out using a Ti: Sapphire laser (Chameleon Ultra II, Coherent) with 6 mW laser output and at a 780 nm two-photon excitation wavelength.

[4] = Selectivity of ATP detection among various cations and anions (fluorescence ratio); conditions: 10 μM, pH 5.5 PBS, analytes at 1 mM
Description: In order to examine the selectivity of Compound 4 in ATP detection, the present inventors measured a fluorescence spectrum (the fluorescence spectrum was obtained using a Photon Technical International Fluorescence System) by filling a quartz fluorescence cell (114F-QS, Hellma Analytics) with a 1 cm light path with a pH 5.5 PBS solution (with 0.1% acetonitrile) comprising Compound 4 at 10 μM and various cations and anions (ATP, ADP, AMP, cytidine triphosphate (CTP), uridine triphosphate (UTP), guanosine triphosphate (GTP), thymine triphosphate (TTP), […] (PPi), phosphoric acid (H3PO4), nitrate anions (NO3^−), phosphate anions (PO4^3−), dithionite ion (S2O4^2−), sulfate ion (SO4^2−), acetate ion, nitrite ion (NO2^−), perchlorate ions (ClO4^−), citrate ions, monohydrogen phosphate ions (HPO4^2−), cyanide ions (CN^−), nickel ions (Ni^+), silver ions (Ag^+), manganese ions (Mn^2+), palladium ions (Pd^2+), cadmium ions (Cd^2+), cobalt ions (Co^3+), iron ions (Fe^+), zinc ion (Zn^2+), copper ion (Cu^2+), potassium ion (K^+), magnesium ion (Mg^2+), calcium ions (Ca^2+), sodium ions (Na^+), lead ions (Pb^2+), and chromium ions (Cr^3+)) at 1 mM, and the fluorescence ratios (y-axis) for various analytes (x-axis) were provided in FIG. 4.

[5] = Fluorescence ATP detection characteristic, ratiometric, in PBS solution
Description: Specifically, to observe the ATP detection characteristic of Compound 4, the present inventors measured a fluorescence spectrum (the fluorescence spectrum was obtained using a Photon Technical International Fluorescence System) by filling a quartz fluorescence cell (114F-QS, Hellma Analytics) with a 1 cm light path with a pH 5.5 PBS solution (with 0.1% acetonitrile) comprising 10 μM Compound 4 and ATP (0.0-1.0 mM), and graphs of the normalized fluorescence intensity (y-axis) with respect to the wavelength (x-axis) are shown in FIG. 2A. […] In addition, to assess the feasibility of quantification by a ratiometric detection system, the correlation between the ATP concentration (x-axis) and the fluorescence ratio (the ratio between two types of fluorescence) (y-axis) was provided in FIG. 2B. As appears in FIG. 2B, the proportional relationship between the ATP concentration and the ratio between two types of fluorescence proves the feasibility of quantification by a ratiometric detection system.
In order to assess the correlation between the ATP detection by Compound 4 and the pH of the solution, the present inventors measured a fluorescence spectrum (the fluorescence spectrum was obtained using a Photon Technical International Fluorescence System) by filling a quartz fluorescence cell (114F-QS, Hellma Analytics) with a 1 cm light path with a PBS solution (with 0.1% acetonitrile) with a pH range of 4.0 to 8.0 comprising 10 μM Compound 4 and ATP (0.0-1.0 mM), and graphs of the fluorescence ratio (y-axis) with respect to the pH (x-axis) are shown in FIG. 3A. According to FIG. 3A, the detectability changed with pH. It was observed that ATP was detected only under acidic conditions (pH 4.8-5.8) of lysosomes, which are the only organelles maintaining acidic conditions in cells, and was not detected at near-neutral pH (pH 7.0-7.5), which corresponds to the pH of most cells. In addition, the fluorescence ratio (y-axis) that changes with respect to the ATP concentration (x-axis) is provided for the pH range of 4.5 to 5.5 in FIG. 3B.

## CCNc1cc2c(cc1C)C1(c3cc(C)c(NCC)cc3O2)c2ccccc2C(=O)N1CCNCCNCCNC1=C2C=CC=[N+]2[B-](F)(F)n2cccc21 [Compound 4, 10-((2-((2-((2-(3′,6′-bis(ethylamino)-2′,7′-dimethyl-3-oxospiro[isoindoline-1,9′-xanthen]-2-yl)ethyl)amino)ethyl)amino)ethyl)amino)-5,5-difluoro-5H-dipyrrolo[1,2-c:2′,1′-f][1,3,2]diazaborinin-4-ium-5-uide]
[1]
  lysosomal selectivity: highly selective to lysosomes
[1]; 10 μM Compound 4 and 50 nM LysoTracker, 1 hour
  colocalization factor with LysoTracker: about 0.95
[2]; 1 mM ATP, in addition to 400 nm
  new absorption wavelength when ATP was detected: ~540 nm
[2]; no ATP
  single absorption wavelength of the fluorescent probe: ~400 nm
HeLa cells; 100 μM, within 8 hours
  cytotoxicity, cells died: about 20%
HeLa cells; up to 10 μM, within 24 hours
  cytotoxicity, cells died: about 8%
[3]
  detection of lysosomal ATP in deep tissue: selectively detected lysosomal ATP
[4]
  selectivity in ATP detection among various cations and anions: highly selective to ATP
[5]; 10 μM, PBS pH 4.0 to 8.0, ATP 0.0-1.0 mM, acidic conditions of lysosomes
  pH range in which ATP was detected: 4.8-5.8 pH
[5]; 10 μM, pH 5.5 PBS (0.1% acetonitrile), ATP 0.0-1.0 mM
  change of fluorescence intensity near 550 nm as ATP concentration increased: greatly increased
[5]; pH 7.0-7.5, 10 μM, ATP 0.0-1.0 mM
  ATP detection at near-neutral pH: not detected
